Data: patent publication US4877795A, “4H-quinolizin-4-one compounds useful for the treatment of allergic bronchial asthma, allergic rhinitis atropic dermatitis and the like” (Kissei Pharmaceutical Co., Ltd., priority 1987, dated 1989)

Assays:
IgE = test: Determination of Igs produced in in vitro culture: inhibition of IgE secreted by spleen cells (adoptive secondary immune response to DNP-As), ELISA; format: cell-based, BALB/c mice; conditions: Mus musculus, 96 h, 4 days culture; for inhibition at 0.25 µg/mL: 0.25 μg/ml; for inhibition at 40 µg/mL: 40.0 μg/ml; for inhibition at 2.5 µg/mL: 2.5 μg/ml; for inhibition at 5 µg/mL: 5.0 μg/ml; for inhibition at 1 µg/mL: 1.0 μg/ml
Protocol: (§1) Determination of Igs produced in in vitro culture
(§2) BALB/c mice were immunized intraperitoneally with 5 μg of DNP-As adsorbed in 4 mg aluminum hydroxide gel. 4 weeks after the immunization, the spleens were excised from the mice and 5×10^7 spleen cells were transferred intravenously into the recipient mice which had been exposed to 600 rad of X-ray irradiation. Immediately after cell transfer, the recipients were then immunized intraperitoneally with 5 μg of DNP-As adsorbed in 4 mg aluminum hydroxide gel to induce adoptive secondary immune response. Further 4 weeks after the immunization of recipients, the spleens were excised from them and the spleen cell suspensions 5×10^6 cells/ml were cultured with or without a compound to be tested in 96-well micro plates at 37° C. for 4 days. IgE and IgG secreted into the culture supernatant was each determined correspondingly by ELISA and the inhibitory effect was calculated according to the following equation. [formula]

IgG = test: Determination of Igs produced in in vitro culture: inhibition of IgG secreted by spleen cells (adoptive secondary immune response to DNP-As), ELISA; format: cell-based, BALB/c mice; conditions: Mus musculus, 96 h, 4 days culture; for inhibition at 0.25 µg/mL: 0.25 μg/ml; for inhibition at 40 µg/mL: 40.0 μg/ml; for inhibition at 2.5 µg/mL: 2.5 μg/ml; for inhibition at 5 µg/mL: 5.0 μg/ml; for inhibition at 1 µg/mL: 1.0 μg/ml
Protocol: as §1, §2

CSc1c(C#N)c(=O)n2ccccc2c1C(=O)OCc1ccc(F)cc1 [S-34, 4'-Fluorobenzyl 3-cyano-2-methylthio-4H-quinolizin-4-one-1-carboxylate]
inhibition at 0.25 µg/mL (IgE): 52% | inhibition at 0.25 µg/mL (IgG): 31%

CCOC(=O)c1c(SCc2ccccc2)c(C#N)c(=O)n2ccccc12 [S-59, Ethyl 3-cyano-2-benzylthio-4H-quinolizin-4-one-1-carboxylate]
inhibition at 40 µg/mL (IgE): 74% | inhibition at 40 µg/mL (IgG): 49%

C#CCOC(=O)c1c(SC)c(C#N)c(=O)n2ccccc12 [S-6, 2'-Propynl 3-cyano-2-methylthio-4H-quinolizin-4-one-1-carboxylate]
inhibition at 10 µg/mL (IgE; 10.0 μg/ml): 63% | inhibition at 10 µg/mL (IgG; 10.0 μg/ml): 35%

CSc1c(C#N)c(=O)n2ccccc2c1C(=O)NC1CCCc2ccccc21 (stereo not drawn) [S-76, 3-Cyano-2-methylthio-N-(1,2,3,4-tetrahydro-1-naphthyl)-4H-quinolizin-4-one-1-carboxamide]
inhibition at 2.5 µg/mL (IgE): 37% | inhibition at 2.5 µg/mL (IgG): 1%

CCN(CC)C(=O)c1c(SC)c(C#N)c(=O)n2ccccc12 [S-62, 3-Cyano-N,N-diethyl-2-methylthio-4H-quinolizin-4-one-1-carboxamide]
inhibition at 40 µg/mL (IgE): 64% | inhibition at 40 µg/mL (IgG): 36%

CSc1c(C#N)c(=O)n2ccccc2c1C(=O)OCc1ccc(C(C)C)cc1 [S-36, 4'-Isopropylbenzyl 3-cyano-2-methylthio-4H-quinolizin-4-one-1-carboxylate]
inhibition at 0.25 µg/mL (IgE): 33% | inhibition at 0.25 µg/mL (IgG): 8%

CCOC(=O)c1c(SC(C)C)c(C#N)c(=O)n2ccccc12 [S-57, Ethyl 3-cyano-2-isopropylthio-4H-quinolizin-4-one-1-carboxylate]
inhibition at 5 µg/mL (IgE): 53% | inhibition at 5 µg/mL (IgG): 32%

CSc1c(C#N)c(=O)n2ccccc2c1C(=O)OCC1CCCCC1 [S-1, Cyclohexylmethyl 3-cyano-2-methylthio-4H-quinolizin-4-one-1-carboxylate]
inhibition at 5 µg/mL (IgE): 65% | inhibition at 5 µg/mL (IgG): 22%

CSc1c(C#N)c(=O)n2ccccc2c1C(=O)Nc1ccc(Nc2ccccc2)cc1 [S-74, N-(4-Anilinophenyl)-3-cyano-2-methylthio-4H-quinolizin-4-one-1-carboxamide]
inhibition at 2.5 µg/mL (IgE): 51% | inhibition at 2.5 µg/mL (IgG): 10%

N#Cc1c(SCc2ccccc2)c(C(=O)N2CCC(c3ccccc3)CC2)c2ccccn2c1=O (single isomer, unassigned) [S-83B, 2-Benzylthio-3-cyano-1-(4-phenylpiperidinocarbonyl)-4H-quinolizin-4-one]
inhibition at 0.25 µg/mL (IgE): 41% | inhibition at 0.25 µg/mL (IgG): 10%

CSc1c(C#N)c(=O)n2ccccc2c1C(=O)OC(C)c1ccc(C#N)cc1 (stereo not drawn) [S-32, 1'-(4-Cyanophenyl)ethyl 3-cyano-2-methylthio-4H-quinolizin-4-one-1-carboxylate]
inhibition at 1 µg/mL (IgE): 52% | inhibition at 1 µg/mL (IgG): 28%

CSc1c(C#N)c(=O)n2ccccc2c1C(=O)OC(C)c1ccc(Br)cc1 (stereo not drawn) [S-30, 1'-(4-Bromophenyl)ethyl 3-cyano-2-methylthio-4H-quinolizin-4-one-1-carboxylate]
inhibition at 0.25 µg/mL (IgE): 45% | inhibition at 0.25 µg/mL (IgG): 27%

CCSc1c(C#N)c(=O)n2ccccc2c1C(=O)OCCCc1ccccc1 [S-52, 3'-Phenylpropyl 3-cyano-2-ethylthio-4H-quinolizin-4-one-1-carboxylate]
inhibition at 0.25 µg/mL (IgE): 46% | inhibition at 0.25 µg/mL (IgG): 17%

CSc1c(C#N)c(=O)n2ccccc2c1C(=O)OC1CCCCC1C (stereo not drawn) [S-17, 2'-Methylcyclohexyl 3-cyano-2-methylthio-4H-quinolizin-4-one-1-carboxylate]
inhibition at 0.25 µg/mL (IgE): 43% | inhibition at 0.25 µg/mL (IgG): 7%

CSc1c(C#N)c(=O)n2ccccc2c1C(=O)N1CCC2CCCCC21 (single isomer, unassigned) [S-85A, 3-Cyano-2-methylthio-1-(perhydroindol-1-yl-carbonyl)-4H-quinolizin-4-one]
inhibition at 5 µg/mL (IgE): 43% | inhibition at 5 µg/mL (IgG): 23%

CSc1c(C#N)c(=O)n2ccccc2c1C(=O)N1CCC(Cc2ccccc2)CC1 (single isomer, unassigned) [S-82A, 1-(4-Benzylpiperidinocarbonyl)-3-cyano-2-methylthio-4H-quinolizin-4-one]
inhibition at 1 µg/mL (IgE): 43% | inhibition at 1 µg/mL (IgG): 18%

CSc1c(C#N)c(=O)n2ccccc2c1C(=O)N1CCCC2CCCCC21 (stereo not drawn) [S-86]
inhibition at 2.5 µg/mL (IgE): 46% | inhibition at 2.5 µg/mL (IgG): 21%

CCC(C)OC(=O)c1c(SC)c(C#N)c(=O)n2ccccc12 (stereo not drawn) [S-10, 1'-Methylpropyl 3-cyano-2-methylthio-4H-quinolizin-4-one-1-carboxylate]
inhibition at 2.5 µg/mL (IgE): 48% | inhibition at 2.5 µg/mL (IgG): 27%

CSc1c(C#N)c(=O)n2ccccc2c1C(=O)N(Cc1ccccc1)Cc1ccccc1 [S-60, 3-Cyano-N,N-dibenzyl-2-methylthio-4H-quinolizin-4-one-1-carboxamide]
inhibition at 1 µg/mL (IgE): 58% | inhibition at 1 µg/mL (IgG): 25%

CSc1c(C#N)c(=O)n2ccc(C)cc2c1C(=O)OCCc1ccccc1 [S-50, 2'-Phenylethyl 3-cyano-8-methyl-2-methylthio-4H-quinolizin-4-one-1-carboxylate]
inhibition at 1 µg/mL (IgE): 64% | inhibition at 1 µg/mL (IgG): 42%

CSc1c(C#N)c(=O)n2ccccc2c1C(=O)Cc1ccc(Cl)cc1 [S-96, 1-(4-Chlrophenylacetyl)-3-cyano-2-methylthio-4H-quinolizin-4-one]
inhibition at 5 µg/mL (IgE): 41% | inhibition at 5 µg/mL (IgG): 12%

CSc1c(C#N)c(=O)n2ccccc2c1C(=O)N1CCN(Cc2ccccc2)CC1 [S-90, 1-(4-Benzyl-1-piperadinylcarbonyl)-3-cyano-2-methylthio-4H-quinolizin-4-one]
inhibition at 5 µg/mL (IgE): 45% | inhibition at 5 µg/mL (IgG): 14%

COc1cc(COC(=O)c2c(SC)c(C#N)c(=O)n3ccccc23)cc(OC)c1OC [S-27, 3',4',5'-Trimethoxybenzyl 3-cyano-2-methylthio-4H-quinolizin-4-one-1-carboxylate]
inhibition at 2.5 µg/mL (IgE): 56% | inhibition at 2.5 µg/mL (IgG): 16%

CSc1c(C#N)c(=O)n2ccccc2c1C(=O)N1CCC(c2ccccc2)CC1 [S-78, 3-Cyano-2-methylthio-1-(4-phenylpiperidinocarbonyl)-4H-quinolizin-4-one]
inhibition at 2.5 µg/mL (IgE): 60% | inhibition at 2.5 µg/mL (IgG): 16%

COC(=O)c1ccc(CNC(=O)c2c(SC)c(C#N)c(=O)n3ccccc23)cc1 [S-77]
inhibition at 5 µg/mL (IgE): 34% | inhibition at 5 µg/mL (IgG): 10%

CSc1c(C#N)c(=O)n2ccccc2c1C(=O)OCc1ccccc1Cl [S-39, 2'-Chlorobenzyl 3-cyano-2-methylthio-4H-quinolizin-4-one-1-carboxylate]
inhibition at 1 µg/mL (IgE): 65% | inhibition at 1 µg/mL (IgG): 31%

CSc1c(C#N)c(=O)n2ccccc2c1C(=O)NCCCc1ccccc1 [S-71]
inhibition at 5 µg/mL (IgE): 63% | inhibition at 5 µg/mL (IgG): 35%

CSc1c(C#N)c(=O)n2ccc(C)cc2c1C(=O)OCc1ccccc1 [S-28, Benzyl 3-cyano-8-menthyl-2-methylthio-4H-quinolizin-4-one-1-carboxylate]
inhibition at 2.5 µg/mL (IgE): 49% | inhibition at 2.5 µg/mL (IgG): 24%

CSc1c(C#N)c(=O)n2ccccc2c1C(C)=O [S-92, 1-Acetyl-3-cyano-2-methylthio-4H-quinolizin-4-one]
inhibition at 40 µg/mL (IgE): 56% | inhibition at 40 µg/mL (IgG): 8%

CSc1c(C#N)c(=O)n2ccccc2c1C(=O)N(C(C)C)C(C)C [S-63, 3-Cyano-N,N-diisopropyl-2-methylthio-4H-quinolizin-4-one-1-carboxamide]
inhibition at 40 µg/mL (IgE): 85% | inhibition at 40 µg/mL (IgG): 47%
